Measured values as given in patent US8846909B2, “Bicyclic heteroaryl kinase inhibitors and methods of use” (University of Rochester, priority 2010, dated 2014).

biological target: T1, MLK3 (Homo sapiens, UniProt Q16584); assay: Radiometric filter plate MLK3 assay; format: biochemical; conditions: read-out: MK3 IC50; note: 2 µM cold ATP (Km)
T1 construct: purchased Dundee DU8313
Protocol: After a twenty minute incubation, the reactions were washed through filter plates and read on a scintillation counter. Results are shown in Table 10 below, in which +++ indicates ≦0.1 μM, ++ indicates >0.1 μM and ≦1 μM, and + indicates >1 μM.

T1 sequence (Q16584 whole entry): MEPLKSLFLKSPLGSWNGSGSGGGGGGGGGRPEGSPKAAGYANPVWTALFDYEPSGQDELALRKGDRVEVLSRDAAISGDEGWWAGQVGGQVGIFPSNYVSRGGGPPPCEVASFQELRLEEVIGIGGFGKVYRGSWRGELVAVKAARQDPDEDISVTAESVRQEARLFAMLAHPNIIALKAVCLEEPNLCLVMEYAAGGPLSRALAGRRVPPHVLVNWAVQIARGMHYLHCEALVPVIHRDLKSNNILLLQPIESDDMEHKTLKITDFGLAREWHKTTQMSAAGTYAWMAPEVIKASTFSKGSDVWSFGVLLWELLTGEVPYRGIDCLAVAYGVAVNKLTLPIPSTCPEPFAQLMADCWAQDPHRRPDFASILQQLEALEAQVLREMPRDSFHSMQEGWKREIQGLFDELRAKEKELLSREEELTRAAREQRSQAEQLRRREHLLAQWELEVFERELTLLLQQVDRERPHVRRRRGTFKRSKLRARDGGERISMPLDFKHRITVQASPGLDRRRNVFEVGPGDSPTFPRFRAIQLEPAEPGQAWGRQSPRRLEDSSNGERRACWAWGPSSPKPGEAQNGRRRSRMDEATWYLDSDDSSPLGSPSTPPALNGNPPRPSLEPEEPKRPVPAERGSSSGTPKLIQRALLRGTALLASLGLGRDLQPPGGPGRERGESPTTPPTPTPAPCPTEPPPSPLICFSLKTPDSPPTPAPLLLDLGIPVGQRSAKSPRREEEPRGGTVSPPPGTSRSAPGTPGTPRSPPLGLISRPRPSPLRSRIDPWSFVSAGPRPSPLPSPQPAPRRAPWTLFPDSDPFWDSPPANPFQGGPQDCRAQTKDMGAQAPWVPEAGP

Compound	IC50 [nM]
COc1cc(-c2cnc3c(c2)C(=Cc2cccc(C#N)c2)C(=O)N3)cc(OC)c1OC (mixture of isomers) [Example 134, 3-[2-oxo-5-(3,4,5-trimethoxy-phenyl)-1,2-dihydro-pyrrolo[2,3-b]pyridin-3-ylidenemethyl]-benzonitrile]	> 1000
COc1cc(-c2cnc3c(c2)C(=Cc2ccncc2)C(=O)N3)cc(OC)c1OC (single isomer, unassigned) [Example 129, (E)- and (Z)-3-pyridin-4-ylmethylene-5-(3,4,5-trimethoxy-phenyl)-1,3-dihydro-pyrrolo[2,3-b]pyridin-2-one]	> 1000
CC(=O)Nc1ccc(-c2cnc3[nH]cc(-c4ccc5[nH]ccc5c4)c3c2)cc1 [Example 3, N-(4-(3-(1H-indol-5-yl)-1H-pyrrolo[2,3-b]pyridin-5-yl)phenyl)acetamide]	< 100
COc1cc(-c2cnc3[nH]cc(-c4ccc5[nH]ccc5c4)c3c2)ccc1N [Example 5, 4-(3-(1H-indol-5-yl)-1H-pyrrolo[2,3-b]pyridin-5-yl)-2-methoxyaniline]	< 100
CN1CCN(c2cc(-c3cnc4[nH]cc(-c5ccc6[nH]ccc6c5)c4c3)ccn2)CC1 [Example 7, 3-(1H-indol-5-yl)-5-(2-(4-methylpiperazin-1-yl)pyridin-4-yl)-1H-pyrrolo[2,3-b]pyridine]	< 100
Nc1ccc(-c2cnc3[nH]cc(-c4ccc5[nH]ccc5c4)c3c2)cc1 [Example 8, 4-(3-(1H-indol-5-yl)-1H-pyrrolo[2,3-b]pyridin-5-yl)aniline]	< 100
CS(=O)(=O)Nc1ccc(-c2cnc3[nH]cc(-c4ccc5[nH]ccc5c4)c3c2)cc1 [Example 11, N-(4-(3-(1H-indol-5-yl)-1H-pyrrolo[2,3-b]pyridin-5-yl)phenyl)methanesulfonamide]	< 100
COc1cc(-c2cnc3[nH]cc(-c4ccc(N)cc4)c3c2)cc(OC)c1OC [Example 15, 4-(5-(3,4,5-trimethoxyphenyl)-1H-pyrrolo[2,3-b]pyridin-3-yl)aniline]	< 100
COc1cc(-c2cnc3[nH]cc(-c4ccc(NC(C)=O)cc4)c3c2)cc(OC)c1OC [Example 16, N-(4-(5-(3,4,5-trimethoxyphenyl)-1H-pyrrolo[2,3-b]pyridin-3-yl)phenyl)acetamide]	< 100
COc1cc(-c2cnc3[nH]cc(-c4ccc(N(C)C)nc4)c3c2)cc(OC)c1OC [Example 19, N,N-dimethyl-5-(5-(3,4,5-trimethoxyphenyl)-1H-pyrrolo[2,3-b]pyridin-3-yl)pyridin-2-amine]	< 100
Nc1ncc(-c2cnc3[nH]cc(-c4cnc(N)nc4)c3c2)cn1 [Example 20, 5,5′-(1H-pyrrolo[2,3-b]pyridine-3,5-diyl)dipyrimidin-2-amine]	> 1000
CN(C)c1ccc(-c2cnc3[nH]cc(-c4ccc(F)c(Cl)c4)c3c2)cn1 [Example 22, 5-(3-(3-chloro-4-fluorophenyl)-1H-pyrrolo[2,3-b]pyridin-5-yl)-N,N-dimethylpyridin-2-amine]	> 1000
COc1cc(-c2cnc3[nH]cc(-c4ccc5c(ccn5C)c4)c3c2)cc(OC)c1OC [Example 24, 3-(1-methyl-1H-indol-5-yl)-5-(3,4,5-trimethoxyphenyl)-1H-pyrrolo[2,3-b]pyridine]	< 100
COc1cc(-c2cnc3[nH]cc(-c4ccc(C(N)=O)cc4)c3c2)cc(OC)c1OC [Example 25, 4-(5-(3,4,5-trimethoxyphenyl)-1H-pyrrolo[2,3-b]pyridin-3-yl)benzamide]	< 100
COc1ccc(-c2cnc3[nH]cc(-c4ccc(C(N)=O)cc4)c3c2)cc1OC [Example 26, 4-(5-(3,4-dimethoxyphenyl)-1H-pyrrolo[2,3-b]pyridin-3-yl)benzamide]	< 100
Nc1ccc(-c2cnc3[nH]cc(-c4ccc(F)c(Cl)c4)c3c2)cn1 [Example 29, 5-(3-(3-chloro-4-fluorophenyl)-1H-pyrrolo[2,3-b]pyridin-5-yl)pyridin-2-amine]	> 1000
c1cc2cc(-c3c[nH]c4ncc(-c5ccc(NCCN6CCCC6)nc5)cc34)ccc2[nH]1 [Example 31, 5-(3-(1H-indol-5-yl)-1H-pyrrolo[2,3-b]pyridin-5-yl)-N-(2-(pyrrolidin-1-yl)ethyl)pyridin-2-amine]	100 to 1000
CN(C)Cc1ccc(-c2cnc3[nH]cc(-c4ccc5[nH]ccc5c4)c3c2)cc1 [Example 33, 1-(4-(3-(1H-indol-5-yl)-1H-pyrrolo[2,3-b]pyridin-5-yl)phenyl)-N,N-dimethylmethanamine]	< 100
COc1cc(-c2cnc3[nH]cc(-c4ccc5[nH]ccc5c4)c3c2)ccc1OCCN(C)C [Example 35, 2-(4-(3-(1H-indol-5-yl)-1H-pyrrolo[2,3-b]pyridin-5-yl)-2-methoxyphenoxy)-N,N-dimethylethanamine]	> 1000
COc1ccc(-c2cnc3[nH]cc(-c4ccc5[nH]ccc5c4)c3n2)cc1OC [Example 37, 2-(3,4-dimethoxyphenyl)-7-(1H-indol-5-yl)-5H-pyrrolo[3,2-b]pyrazine]	< 100

Compound	IC50 [nM]
COc1cc(-c2cnc3[nH]cc(-c4ccc5[nH]ccc5c4)c3n2)ccc1N [Example 38, 4-(7-(1H-indol-5-yl)-5H-pyrrolo[3,2-b]pyrazin-2-yl)-2-methoxyaniline]	< 100
COc1cc(-c2cnc3[nH]cc(-c4ccc5[nH]ccc5c4)c3n2)ccc1OCCN1CCOCC1 [Example 39, 4-(2-(4-(7-(1H-indol-5-yl)-5H-pyrrolo[3,2-b]pyrazin-2-yl)-2-methoxyphenoxy)ethyl)morpholine]	< 100
COc1cc(-c2cnc3[nH]c(=O)n(-c4ccc5[nH]ccc5c4)c3n2)cc(OC)c1OC [Example 40, 1-(1H-indol-5-yl)-6-(3,4,5-trimethoxyphenyl)-1H-imidazo[4,5-b]pyrazin-2(3H)-one]	< 100
Cn1ccc2cc(-n3c(=O)[nH]c4ncc(-c5ccc(O)cc5)nc43)ccc21 [Example 42, 6-(4-hydroxyphenyl)-1-(1-methyl-1H-indol-5-yl)-1H-imidazo[4,5-b]pyrazin-2(3H)-one]	> 1000
Cc1cc(C)cc(-c2cnc3[nH]c(=O)n(-c4ccc5c(ccn5C)c4)c3n2)c1 [Example 43, 6-(3,5-dimethylphenyl)-1-(1-methyl-1H-indol-5-yl)-1H-imidazo[4,5-b]pyrazin-2(3H)-one]	> 1000
O=c1[nH]c2ncc(-c3ccncc3)nc2n1-c1ccc2[nH]ccc2c1 [Example 44, 1-(1H-indol-5-yl)-6-(pyridin-4-yl)-1H-imidazo[4,5-b]pyrazin-2(3H)-one]	> 1000
Cc1cc(C)cc(-c2cnc3[nH]c(=O)n(-c4ccc5[nH]ccc5c4)c3n2)c1 [Example 46, 6-(3,5-dimethylphenyl)-1-(1H-indol-5-yl)-1H-imidazo[4,5-b]pyrazin-2(3H)-one]	> 1000
O=c1[nH]c2ncc(-c3cc(Cl)cc(Cl)c3)nc2n1-c1ccc2[nH]ccc2c1 [Example 48, 6-(3,5-dichlorophenyl)-1-(1H-indol-5-yl)-1H-imidazo[4,5-b]pyrazin-2(3H)-one]	> 1000
COc1ccc(-c2cnc3[nH]c(=O)n(-c4ccc5[nH]ccc5c4)c3n2)cc1F [Example 49, 6-(3-fluoro-4-methoxyphenyl)-1-(1H-indol-5-yl)-1H-imidazo[4,5-b]pyrazin-2(3H)-one]	> 1000
COc1cc(-c2cnc3[nH]c(=O)n(-c4ccc5[nH]ccc5c4)c3n2)ccc1O [Example 55, 6-(4-hydroxy-3-methoxyphenyl)-1-(1H-indol-5-yl)-1H-imidazo[4,5-b]pyrazin-2(3H)-one]	< 100
O=c1[nH]c2ncc(-c3ccc4cc[nH]c4c3)nc2n1-c1ccc2[nH]ccc2c1 [Example 56, 1-(1H-indol-5-yl)-6-(1H-indol-6-yl)-1H-imidazo[4,5-b]pyrazin-2(3H)-one]	> 1000
COc1cc(-c2cnc3[nH]c(=O)n(-c4ccc5[nH]ccc5c4)c3n2)ccc1OCCN1CCOCC1 [Example 57, 1-(1H-indol-5-yl)-6-(3-methoxy-4-(2-morpholinoethoxy)phenyl)-1H-imidazo[4,5-b]pyrazin-2(3H)-one]	< 100
O=c1[nH]c2ncc(-c3cc(F)c(O)c(F)c3)nc2n1-c1ccc2[nH]ccc2c1 [Example 59, 6-(3,5-difluoro-4-hydroxyphenyl)-1-(1H-indol-5-yl)-1H-imidazo[4,5-b]pyrazin-2(3H)-one]	< 100
COc1cc(-c2cnc3[nH]c(=O)n(-c4ccc5[nH]ccc5c4)c3n2)ccc1N [Example 60, 6-(4-amino-3-methoxyphenyl)-1-(1H-indol-5-yl)-1H-imidazo[4,5-b]pyrazin-2(3H)-one]	< 100
O=c1[nH]c2ncc(-c3cc(F)cc(F)c3)nc2n1-c1ccc2[nH]ccc2c1 [Example 61, 6-(3,5-difluorophenyl)-1-(1H-indol-5-yl)-1H-imidazo[4,5-b]pyrazin-2(3H)-one]	> 1000
COc1cc(-c2cnc3[nH]c(=O)n(-c4ccc5[nH]ccc5c4)c3n2)cc(OC)c1O [Example 62, 6-(4-hydroxy-3,5-dimethoxyphenyl)-1-(1H-indol-5-yl)-1H-imidazo[4,5-b]pyrazin-2(3H)-one]	< 100
COc1cc(OC)cc(-c2cnc3[nH]c(=O)n(-c4ccc5[nH]ccc5c4)c3n2)c1 [Example 65, 6-(3,5-dimethoxyphenyl)-1-(1H-indol-5-yl)-1H-imidazo[4,5-b]pyrazin-2(3H)-one]	> 1000
CN1CCN(c2cc(-c3cnc4[nH]c(=O)n(-c5ccc6[nH]ccc6c5)c4n3)ccn2)CC1 [Example 66, 1-(1H-indol-5-yl)-6-(2-(4-methylpiperazin-1-yl)pyridin-4-yl)-1H-imidazo[4,5-b]pyrazin-2(3H)-one]	> 1000
COc1ccc(-n2c(=O)[nH]c3ncc(-c4ccc(OC)c(OC)c4)nc32)cc1 [Example 69, 6-(3,4-dimethoxyphenyl)-1-(4-methoxyphenyl)-1H-imidazo[4,5-b]pyrazin-2(3H)-one]	> 1000
COc1ccc(-n2c(=O)[nH]c3ncc(-c4ccc(O)cc4)nc32)cc1 [Example 70, 6-(4-hydroxyphenyl)-1-(4-methoxyphenyl)-1H-imidazo[4,5-b]pyrazin-2(3H)-one]	> 1000
